Like-named read-outs stand apart in the source and are kept apart here.
Biological target: SARS-CoV-2 3CL protease (Severe acute respiratory syndrome coronavirus 2, UniProt P0DTD1)
Assay type: biochemical
Parameters: Avg: unit not given here
Settings: for Inhibition at 10 µM: 10 µM compound; for Inhibition at 100 µM: 100 µM compound; for IC50 / LogIC50: Figure S1 and S2
[1] = log of IC50 (µM), dose-response curve fit
[2] = Conc 10 µM, average response of dose-response curve
[3] = Conc 15 µM, average response of dose-response curve
[4] = Conc 20 µM, average response of dose-response curve
[5] = Conc 50 µM, average response of dose-response curve
[6] = Conc 100 µM, average response of dose-response curve
[7] = Conc 200 µM, average response of dose-response curve
[8] = dose-response retest of fragment hits
[9] = Conc 10 µM, mean response (inhibition) of dose-response curve
[10] = Conc 15 µM, mean response (inhibition) of dose-response curve
[11] = Conc 20 µM, mean response (inhibition) of dose-response curve
[12] = Conc 50 µM, mean response (inhibition) of dose-response curve
[13] = Conc 100 µM, mean response (inhibition) of dose-response curve
[14] = Conc 200 µM, mean response (inhibition) of dose-response curve
[15] = dose-response curve of fragment hit

SMILES	Inhibition at 10 µM [%]	Inhibition at 100 µM [%]	Avg [9]	Avg [10]	Avg [11]	Avg [12]	Avg [13]	Avg [14]	IC50 [15] [µM]	LogIC50 (log10 of IC50 in µM)	also measured
O=C(NCc1ncccc1F)c1cccnc1S [Z1499268500]	17	100									Avg (Conc 10 µM): 17.2; Avg (Conc 15 µM): 49.3; Avg (Conc 20 µM): 94.7; Avg (Conc 50 µM): 100.1; Avg (Conc 100 µM): 91.4; Avg (Conc 200 µM): 94.2; IC50 (dose-response curve fit): 15 µM; LogIC50 [1]: 1.1775
Cc1cnccc1CCNC(=O)c1cccnc1S [Z1515958452]	4	100									Avg [2]: 4; Avg [3]: -6.1; Avg [4]: 25.7; Avg [5]: 93.3; Avg [6]: 101.4; Avg [7]: 97.8; IC50 [8]: 20.6 µM; LogIC50 (log of IC50 in µM): 1.315
CCN(c1ccc(C(=O)CCl)cc1)S(C)(=O)=O [Z85932823]	25	84	25.1	25.8	34.6	58.2	84.1	87.1	39.7	1.598	
CC1C(=O)Nc2ccc(C(=O)CCl)cc21 (stereo not drawn) [Z94598687]	3	85	3	12.3	39.4	61.2	84.9	105.3	33.9	1.53	
Cc1ccc(CNC(=O)n2ccnc2)cc1 [Z295462498]	21	100	21	37.9	33.6	84.1	101.3	104	26.7	1.426	
COC1(CNC(=O)c2cccnc2S)CCOCC1 [Z1483040147]	0	90									Avg (Conc 10 µM): -6.5; Avg (Conc 15 µM): -1.8; Avg (Conc 20 µM): 13.4; Avg (Conc 50 µM): 61.8; Avg (Conc 100 µM): 90; Avg (Conc 200 µM): 90.2; IC50 (dose-response curve fit): 39.7 µM; LogIC50 [1]: 1.599
CSc1cc(C(=O)CCl)ccc1NC(C)=O [Z449369022]		95	12.5	32	31	67.6	95.3	107.3	31	1.491	
CC1(C)C(=O)Nc2ccc(C(=O)CCl)cc21 [Z2160878465]	7	97									Avg [2]: 6.9; Avg [3]: 29.9; Avg [4]: 41.3; Avg [5]: 60; Avg [6]: 96.5; Avg [7]: 106.7; IC50 [8]: 28.6 µM; LogIC50 (log of IC50 in µM): 1.456
O=C(CCl)c1ccc(F)c(C(=O)CCl)c1 [Z2768504793]	3	63	3.4	11.1	34.1	48.5	62.9	79.1	50.2	1.7	
O=C(CCl)NC(=O)OCc1ccccc1 [Z108566700]	22	100									Avg (Conc 10 µM): 22.2; Avg (Conc 15 µM): 41.7; Avg (Conc 20 µM): 51.1; Avg (Conc 50 µM): 86.4; Avg (Conc 100 µM): 100.3; Avg (Conc 200 µM): 108.1; IC50 (dose-response curve fit): 19 µM; LogIC50 [1]: 1.279
Cn1cc(CNC(=O)c2cccnc2S)c(C(F)(F)F)n1 [Z1488388701]	2	100									Avg (Conc 10 µM): 2.1; Avg (Conc 15 µM): 19.8; Avg (Conc 20 µM): 26.9; Avg (Conc 50 µM): 96.9; Avg (Conc 100 µM): 107.8; Avg (Conc 200 µM): 105; IC50 (dose-response curve fit): 25.7 µM; LogIC50 [1]: 1.41
CCNC(=O)N1CCC(NC(=O)c2cccnc2S)C1 (stereo not drawn) [Z1421663935]	4	100									Avg (Conc 10 µM): 3.7; Avg (Conc 15 µM): 20; Avg (Conc 20 µM): 18.3; Avg (Conc 50 µM): 97.3; Avg (Conc 100 µM): 103.3; Avg (Conc 200 µM): 100; IC50 (dose-response curve fit): 28 µM; LogIC50 [1]: 1.447
CC(C)OC1CCC(NC(=O)c2cccnc2S)CC1 (stereo not drawn) [Z1500153099]	2	96									Avg (Conc 10 µM): 2.2; Avg (Conc 15 µM): 13; Avg (Conc 20 µM): 32.4; Avg (Conc 50 µM): 52.9; Avg (Conc 100 µM): 96.3; Avg (Conc 200 µM): 103; IC50 (dose-response curve fit): 37.9 µM; LogIC50 [1]: 1.579
CN(C)C(=O)c1csc(C(=O)CCl)c1 [Z3244705145]	24	89	23.6	22.7	40.5	58.7	89	99.3	35.9	1.555	
O=C(CCl)c1csc(N2CCCCC2)n1 [Z2469673977]	51	100									Avg [2]: 51.4; Avg [3]: 56.3; Avg [4]: 64; Avg [5]: 57.3; Avg [6]: 102; Avg [7]: 104.1
NC(=O)CCc1ccc(C(=O)CCl)cc1 [Z1203664423]	22	88									Avg (Conc 10 µM): 21.6; Avg (Conc 15 µM): 41.7; Avg (Conc 20 µM): 49.5; Avg (Conc 50 µM): 69.9; Avg (Conc 100 µM): 88.3; Avg (Conc 200 µM): 103.3; IC50 (dose-response curve fit): 22 µM; LogIC50 [1]: 1.341
O=C(NCCC1=CCOCC1)c1cccnc1S [Z1510476385]	0	99									Avg [2]: 0.1; Avg [3]: 16; Avg [4]: 18.7; Avg [5]: 80.4; Avg [6]: 98.6; Avg [7]: 100.4; IC50 [8]: 31.3 µM; LogIC50 (log of IC50 in µM): 1.496
O=C(CCl)N1CCN(c2ccccc2[N+](=O)[O-])CC1 [Z1562119284]	20	90									Avg [2]: 20; Avg [3]: 20; Avg [4]: 26; Avg [5]: 56.4; Avg [6]: 90; Avg [7]: 97.6; IC50 [8]: 44.6 µM; LogIC50 (log of IC50 in µM): 1.6496
Cc1ccccc1CN1CCCN(C(=O)CCl)CC1 [Z2651952322]	18	91	17.5	31.4	33.6	62.8	90.5	99.5	33.1	1.52	
O=C(CCl)N1CCc2[nH]c3ccccc3c2C1 [Z398556976]	43	100	42.8	70.8	74.6	93.9	100.2	98.1	11	1.042	
CN1Cc2cc(C(=O)CCl)ccc2NC1=O [Z2491497315]	16	95							24.2	1.383	Avg [2]: 15.7; Avg [3]: 35.9; Avg [4]: 38.8; Avg [5]: 78.6; Avg [6]: 95.1; Avg [7]: 102.1; IC50 [8]: 24.2 µM; LogIC50 (log of IC50 in µM): 1.383
O=C(CCl)N1CCN(Cc2ccsc2)CC1 [Z2650385668]	15	86	14.7	16.7	31.9	63.6	86.4	96.9	35.7	1.553	
NC(=O)c1csc(C(=O)CCl)c1 [Z802671642]	16	80	15.9	29.5	35.2	47.6	80.1	92.5	42.6	1.6293	
O=C(NCC1(O)CCc2ccccc21)c1cccnc1S (stereo not drawn) [Z1501256406]	55	82									Avg (Conc 10 µM): 55.2; Avg (Conc 15 µM): 87.1; Avg (Conc 20 µM): 101.3; Avg (Conc 50 µM): 96.8; Avg (Conc 100 µM): 82.6; Avg (Conc 200 µM): 65.5
CN(c1ccc(C(=O)CCl)cc1)S(C)(=O)=O [Z57982062]	47	94	47.1	48.1	62	79.8	93.6	99.3	13.5	1.131	
O=C(CCl)N1CCN(Cc2cccs2)CC1 [Z166605372]	3	70									Avg [2]: 3.4; Avg [3]: 11.2; Avg [4]: 27.4; Avg [5]: 53.6; Avg [6]: 69.5; Avg [7]: 93; IC50 [8]: 47.5 µM; LogIC50 (log of IC50 in µM): 1.677
O=C(CCl)COc1ccc(Cl)cc1 [Z3236282166]	48	100	47.7	63.9	86.8	98.6	103.3	106	11.5	1.059	
